The source of these data is patent US9186381B2, “Medicament for liver regeneration and for treatment of liver failure” (Helmholtz Zentrum Fuer Infektionsforschung GmbH, priority 2011, dated 2015).

For one experiment, the target named is T1, purified MKK4 protein (Homo sapiens, UniProt P45985).
T1 construct: made in house
T1 sequence (P45985 1-399): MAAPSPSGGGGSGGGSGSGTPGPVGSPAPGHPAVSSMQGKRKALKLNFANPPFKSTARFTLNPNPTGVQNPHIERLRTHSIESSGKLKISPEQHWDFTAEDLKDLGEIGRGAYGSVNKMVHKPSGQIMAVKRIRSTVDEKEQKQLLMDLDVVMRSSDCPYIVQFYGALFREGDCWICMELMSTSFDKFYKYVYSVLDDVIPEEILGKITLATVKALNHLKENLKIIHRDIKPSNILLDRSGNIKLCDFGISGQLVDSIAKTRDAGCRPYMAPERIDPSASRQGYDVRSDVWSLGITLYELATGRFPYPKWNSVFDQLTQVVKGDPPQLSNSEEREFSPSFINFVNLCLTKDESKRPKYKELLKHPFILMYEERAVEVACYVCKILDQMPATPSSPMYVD
Kind of experiment: in vitro MKK4 kinase assay, phosphorylation of substrate JNK1a1 with 32P-ATP. The format is biochemical. The settings on record: positive control, remaining activity. How it is done: The inhibitory effect of compounds against MKK4 was analysed in an in vitro assay using purified MKK4 protein, e.g. obtained from a cell line that was genetically manipulated to over-express MKK4 from an expression cassette containing the nucleotide sequence SEQ ID NO: 1204 as a coding sequence and affinity purification using e.g. an antibody directed against MKK4 protein.
In the assay, purified active MKK4 protein was incubated with its substrate JNK1a1 and ^32P-labelled gATP (5 μCi, approx. 10 μM), without additional active compound, with the small inhibitory compound, or with Genistein as a positive control. For the assay, kinase assay buffer (20 mM HEPES pH 7.5; 10 mM MgCl2; 1 mg/ml BSA; 1 mM Na3VO4; 1 mM DTT) was used. An inhibitory effect of the small inhibitory compound (final concentration 50 μM) was detected as a reduction of the phosphorylation activity of MKK4 protein on its substrate JNK1a1 by measuring the amount of radioactive (^32P) phosphate in JNK1a1. Phosphorylation of JNK1a1 was measured in the presence of 2 ml scintillation cocktail per sample by using a scintillation counter (Wallac, Liquid Scintillation Counter). In this assay, Genistein gave an inhibition to approx. 80% activity compared to the assay without additional active compound.
With `O=c1c(-c2ccc(O)cc2)coc2cc(O)cc(O)c12` [Genistein], the “inhibition to % activity compared to the assay without additional active compound” value is “approx. 80%”.

Staying with this experiment, now noted: small inhibitory compound final concentration 50 μM, 32P-gATP approx. 10 μM, value is remaining activity, read-out: Inhibition, relative activity of MKK4 compared to control (without additional compound) (%).
For `Cn1c(O)c(C(=O)Nc2ccncc2)c(=O)c2ccccc21` [BAS00525963, 2-hydroxy-1-methyl-4-oxo-N-pyridin-4-ylquinoline-3-carboxamide], the remaining activity at 50 µM was found to be 72.6%.

With `Cc1n[nH]c(C)c1CCc1cc(=O)n2nc(C)c(-c3ccc(Cl)cc3)c2[nH]1` [SYN22177890, 3-(4-chlorophenyl)-5-[2-(3,5-dimethyl-1H-pyrazol-4-yl)ethyl]-2-methyl-1H-pyrazolo[1,5-a]pyrimidin-7-one], the remaining activity at 50 µM came to 56.3%.

As for `O=C(O)c1ccc2c3c(ncnc13)-c1ccccc1C2=O` [BAS00368055, 7-oxobenzo[e]perimidine-4-carboxylic acid], the remaining activity at 50 µM turned out to be 66.2%.

Consider `COc1nc(Oc2cccc(/C=C(\C#N)c3nn(CCO)c(N)c3C#N)c2)nc(N2CCCCC2)n1` [BAS00896568, 5-amino-3-[(Z)-1-cyano-2-[3-[(4-methoxy-6-piperidin-1-yl-1,3,5-triazin-2-yl)oxy]phenyl]ethenyl]-1-(2-hydroxyethyl)pyrazole-4-carbonitrile], for which the remaining activity at 50 µM was 58.4%.

With `Cc1ccc(NC(=O)c2cccc(N(C)C)c2)cc1NC(=O)c1ccc(O)cc1` [ZM 336372, 3-(Dimethylamino)-N-[3-[(4-hydroxybenzoyl)-amino]-4-methylphenyl]benzamide, reference compound], the remaining activity at 50 µM was 54.2%.

Consider `COc1cc([N+](=O)[O-])cc(/C=N/c2ccc3[nH]ncc3c2)c1O` [BAS00697462, 2-(1H-indazol-5-yliminomethyl)-6-methoxy-4-nitrophenolate], for which the remaining activity at 50 µM turned out to be 71.1%.

For `COCc1nn2c(=O)cc(CCc3c(C)n[nH]c3C)[nH]c2c1-c1ccc(Cl)cc1` [SYN22176267, 3-(4-chlorophenyl)-5-[2-(3,5-dimethyl-1H-pyrazol-4-yl)ethyl]-2-(methoxymethyl)-1H-pyrazolo[1,5-a]pyrimidin-7-one], the remaining activity at 50 µM amounted to 59.1%.

Regarding `Cc1ccc(-c2cnn3c(=O)cc(CCc4c(C)n[nH]c4C)[nH]c23)cc1` [SYN22175977, 5-[2-(3,5-dimethyl-1H-pyrazol-4-yl)ethyl]-3-(4-methylphenyl)-1H-pyrazolo[1,5-a]pyrimidin-7-one], the remaining activity at 50 µM worked out at 55.5%.

As for `COc1ccccc1-c1nn2c(=O)cc(CCc3c(C)n[nH]c3C)[nH]c2c1C` [SYN22176990, 5-[2-(3,5-dimethyl-1H-pyrazol-4-yl)ethyl]-2-(2-methoxyphenyl)-3-methyl-pyrazolo[5,1-b]pyrimidin-7-ol], the remaining activity at 50 µM was 58.2%.

Turning to `COCc1nn2c(=O)cc(CCc3c(C)n[nH]c3C)[nH]c2c1-c1ccc(C)cc1` [SYN22176367, 5-[2-(3,5-dimethyl-1H-pyrazol-4-yl)ethyl]-2-(methoxymethyl)-3-(4-methylphenyl)-1H-pyrazolo[1,5-a]pyrimidin-7-one], the remaining activity at 50 µM was 49.9%.

As to `Cc1n[nH]c(C)c1CCc1cc(=O)n2ncc(-c3ccc(F)cc3)c2[nH]1` [SYN22174787, 5-[2-(3,5-dimethyl-1H-pyrazol-4-yl)ethyl]-3-(4-fluorophenyl)-1H-pyrazolo[1,5-a]pyrimidin-7-one], the remaining activity at 50 µM was found to be 41.5%.

As to `COc1cccc(-c2nn3c(=O)cc(CCc4c(C)n[nH]c4C)[nH]c3c2C)c1` [SYN22176842, 5-[2-(3,5-dimethyl-1H-pyrazol-4-yl)ethyl]-2-(3-methoxyphenyl)-3-methyl-pyrazolo[5,1-b]pyrimidin-7-ol], the remaining activity at 50 µM was determined as 54.9%.

As to `O=[N+]([O-])c1cccc(/C=N/c2ccc3[nH]ncc3c2)c1O` [BAS00697444, 2-(1H-indazol-5-yliminomethyl)-6-nitrophenolate], the remaining activity at 50 µM amounted to 79%.

As to `Cc1n[nH]c(C)c1CCc1cc(O)n2ncc(C(=O)Nc3ccccc3)c2n1` [SYN22174524, 5-[2-(3,5-dimethyl-1H-pyrazol-4-yl)ethyl]-7-oxo-N-phenyl-1H-pyrazolo[1,5-a]pyrimidine-3-carboxamide], the remaining activity at 50 µM was determined as 47.8%.

The next experiment relates to MKK4 in the liver. Kind of experiment: inhibition of MKK4 in vivo by small inhibitors administered to mice. The conditions noted are these: dosage efficient for in vivo inactivation of MKK4. How it is done:
In the alternative to inhibition of MKK4 activity in liver tissue by inhibitory RNA, SP600125, myricitine, Genistein, or PD98059 were used for inactivating MKK4 in the liver. Generally, SP600125, myricitine, Genistein, or PD98059 were administered to mice at a dosage efficient for in vivo inactivation of MKK4. Preferably, the dosage was efficient to inactivate at least 80%, more preferably at least 90 or 95% of mean in vivo MKK4 activity.
On to `O=c1c(-c2ccc(O)cc2)coc2cc(O)cc(O)c12` [Genistein], for which the liver regeneration result was “significant increase in liver regeneration”, the proliferation result is “increase in proliferation” and the “protection against induced apoptosis” value is “protection against induced apoptosis”.

Regarding `O=c1c(O)c(-c2cc(O)c(O)c(O)c2)oc2cc(O)cc(O)c12` [myricitine], the liver regeneration entry was “significant increase in liver regeneration”, the proliferation entry was “increase in proliferation” and the “protection against induced apoptosis” value was “protection against induced apoptosis”.

Regarding `COc1cccc(-c2cc(=O)c3ccccc3o2)c1N` [PD98059], the liver regeneration result is recorded as “significant increase in liver regeneration”, the proliferation result was “increase in proliferation” and the “protection against induced apoptosis” value is reported as “protection against induced apoptosis”.
